According to ChEMBL document CHEMBL1201862, “PubChem BioAssay data set” (2004):
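48-hour exposure; five concentrations; linearly interpolated endpoints. Abbreviation: GI50, concentration required for 50% inhibition of growth.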 Calls of active or inactive are those of the source. Rule as the data show it: active = GI50 up to about 1.1 µM and inactive = higher.

Assays:
Test in all cases: NCI tumour cell line growth inhibition, 48 h
U-251 = test system: U-251
SW-620 = test system: SW-620
786-0 = test system: 786-0
EKVX = test system: EKVX
NCI-H460 = test system: NCI-H460
HCC 2998 = test system: HCC 2998
HCT-15 = test system: HCT-15
UO-31 = test system: UO-31
OVCAR-5 = test system: OVCAR-5
Malme-3M = test system: Malme-3M
SK-MEL-5 = test system: SK-MEL-5
HT-29 = test system: HT-29
SF-539 = test system: SF-539
DMS-114 = test system: DMS-114
HOP-62 = test system: HOP-62
LXFL 529 = test system: LXFL 529
UACC-257 = test system: UACC-257
NCI-H23 = test system: NCI-H23
SF-295 = test system: SF-295
SNB-75 = test system: SNB-75
K562 = test system: K562
SNB-19 = test system: SNB-19
RXF 393 = test system: RXF 393
RPMI-8226 = test system: RPMI-8226
M19-MEL = test system: M19-MEL
XF498 = test system: XF498
SK-MEL-28 = test system: SK-MEL-28
UACC-62 = test system: UACC-62
HOP-18 = test system: HOP-18
KM-20L2 = test system: KM-20L2
OVCAR-4 = test system: OVCAR-4
ACHN = test system: ACHN
SK-OV-3 = test system: SK-OV-3
COLO 205 = test system: COLO 205
SNB-78 = test system: SNB-78
KM12 = test system: KM12
IGROV-1 = test system: IGROV-1
A498 = test system: A498
CCRF-CEM = test system: CCRF-CEM
DLD-1 = test system: DLD-1
OVCAR-3 = test system: OVCAR-3
M14 = test system: M14
CAKI-1 = test system: CAKI-1
SF-268 = test system: SF-268
SK-MEL-2 = test system: SK-MEL-2
LOX IMVI = test system: LOX IMVI
SN12C = test system: SN12C
A549 = test system: A549
DMS-273 = test system: DMS-273
OVCAR-8 = test system: OVCAR-8
MOLT-4 = test system: MOLT-4
TK-10 = test system: TK-10
NCI-H522 = test system: NCI-H522
HCT-116 = test system: HCT-116
SR = test system: SR
HL-60 = test system: HL-60
HOP-92 = test system: HOP-92
NCI-H226 = test system: NCI-H226

Measured: GI50

CC[P+](C)(C)c1ccccc1
> 100 µM: HCT-15
inactive: U-251 > 100 µM | SW-620 > 100 µM | 786-0 > 100 µM | EKVX > 100 µM | NCI-H460 > 100 µM | HCC 2998 > 100 µM | UO-31 > 100 µM | OVCAR-5 > 100 µM | Malme-3M > 100 µM | SK-MEL-5 > 100 µM | HT-29 > 100 µM | SF-539 > 100 µM | DMS-114 > 100 µM | HOP-62 > 100 µM | LXFL 529 > 100 µM | UACC-257 > 100 µM | NCI-H23 > 100 µM | SF-295 > 100 µM | SNB-75 > 100 µM | K562 > 100 µM | SNB-19 > 100 µM | RXF 393 > 100 µM | RPMI-8226 > 100 µM | M19-MEL > 100 µM | XF498 > 100 µM | SK-MEL-28 > 100 µM | UACC-62 > 100 µM | HOP-18 5 µM | KM-20L2 > 100 µM | OVCAR-4 99.3 µM | ACHN > 100 µM | SK-OV-3 > 100 µM | COLO 205 > 100 µM | SNB-78 58.1 µM | KM12 > 100 µM | IGROV-1 > 100 µM | A498 > 100 µM | CCRF-CEM > 100 µM | DLD-1 > 100 µM | OVCAR-3 > 100 µM | M14 > 100 µM | CAKI-1 > 100 µM | SF-268 > 100 µM | SK-MEL-2 > 100 µM | LOX IMVI > 100 µM | SN12C > 100 µM | A549 > 100 µM | DMS-273 > 100 µM | OVCAR-8 > 100 µM | MOLT-4 > 100 µM | TK-10 > 100 µM

Cc1cccc(C)c1NC(=O)C(=O)C1C(=O)N(c2ccccc2)N=C1N (configuration not stated)
inactive: U-251 > 100 µM | SW-620 > 100 µM | 786-0 > 100 µM | EKVX > 100 µM | NCI-H522 > 100 µM | NCI-H460 > 100 µM | HCC 2998 > 100 µM | UO-31 > 100 µM | OVCAR-5 > 100 µM | Malme-3M > 100 µM | SK-MEL-5 > 100 µM | HCT-116 > 100 µM | HT-29 > 100 µM | SF-539 > 100 µM | DMS-114 > 100 µM | HOP-62 > 100 µM | LXFL 529 > 100 µM | UACC-257 > 100 µM | NCI-H23 > 100 µM | SF-295 > 100 µM | SNB-75 94.4 µM | K562 > 100 µM | SNB-19 > 100 µM | RXF 393 > 100 µM | RPMI-8226 > 100 µM | M19-MEL > 100 µM | SK-MEL-28 > 100 µM | UACC-62 > 100 µM | HOP-18 > 100 µM | KM-20L2 > 100 µM | OVCAR-4 > 100 µM | ACHN > 100 µM | SK-OV-3 > 100 µM | COLO 205 > 100 µM | SNB-78 > 100 µM | KM12 > 100 µM | IGROV-1 > 100 µM | A498 > 100 µM | CCRF-CEM > 100 µM | SR > 100 µM | HL-60 > 100 µM | HOP-92 > 100 µM | NCI-H226 > 100 µM | DLD-1 > 100 µM | OVCAR-3 > 100 µM | M14 > 100 µM | CAKI-1 > 100 µM | SF-268 > 100 µM | SK-MEL-2 > 100 µM | LOX IMVI > 100 µM | SN12C > 100 µM | A549 > 100 µM | DMS-273 > 100 µM | OVCAR-8 > 100 µM | MOLT-4 > 100 µM | TK-10 > 100 µM
> 100 µM: HCT-15

O=C1C(=O)N(c2ccc(Cl)cc2Cl)C(=O)C(=O)C1c1nc2ccccc2s1
> 89.1 µM: HCT-15
inactive: U-251 > 43.9 µM | SW-620 > 78.3 µM | 786-0 > 100 µM | EKVX > 79.8 µM | NCI-H522 24.5 µM | NCI-H460 > 100 µM | HCC 2998 > 100 µM | UO-31 > 77.4 µM | OVCAR-5 > 100 µM | Malme-3M > 100 µM | SK-MEL-5 65.2 µM | HCT-116 > 71.6 µM | HT-29 > 82.2 µM | SF-539 > 100 µM | DMS-114 > 72.4 µM | HOP-62 > 100 µM | LXFL 529 50.6 µM | UACC-257 > 100 µM | NCI-H23 > 64 µM | SF-295 > 100 µM | SNB-75 20.9 µM | K562 31 µM | SNB-19 > 100 µM | RXF 393 > 100 µM | RPMI-8226 48 µM | M19-MEL > 100 µM | XF498 > 55 µM | SK-MEL-28 > 87.9 µM | UACC-62 78.3 µM | HOP-18 > 100 µM | KM-20L2 > 100 µM | OVCAR-4 > 78.5 µM | ACHN > 100 µM | SK-OV-3 > 100 µM | COLO 205 > 100 µM | KM12 > 100 µM | IGROV-1 > 100 µM | A498 > 100 µM | CCRF-CEM 25 µM | SR 28.2 µM | HL-60 23.7 µM | HOP-92 80.4 µM | NCI-H226 > 74.8 µM | DLD-1 > 51.8 µM | OVCAR-3 > 100 µM | M14 > 100 µM | CAKI-1 64.1 µM | SF-268 > 56.4 µM | SK-MEL-2 > 100 µM | LOX IMVI > 100 µM | SN12C > 100 µM | A549 > 100 µM | DMS-273 > 100 µM | OVCAR-8 > 100 µM | MOLT-4 23.3 µM | TK-10 > 100 µM

N#CN=C(N(Cc1ccccc1)Cc1ccccc1)N(Cc1ccccc1)Cc1ccccc1
6.37 µM: HCT-15
inactive: SW-620 9.82 µM | EKVX 7.11 µM | NCI-H522 4.69 µM | NCI-H460 3.88 µM | HCC 2998 47 µM | UO-31 5.64 µM | OVCAR-5 45.2 µM | Malme-3M 36.7 µM | HCT-116 3.51 µM | HT-29 6.22 µM | SF-539 46.7 µM | DMS-114 4.85 µM | HOP-62 > 100 µM | LXFL 529 3.89 µM | UACC-257 8.47 µM | SF-295 > 100 µM | SNB-75 95.7 µM | K562 4.36 µM | SNB-19 28.7 µM | RPMI-8226 3.88 µM | M19-MEL 25.5 µM | XF498 12.5 µM | UACC-62 6.32 µM | HOP-18 > 100 µM | KM-20L2 16.4 µM | ACHN 4.53 µM | SK-OV-3 21.8 µM | COLO 205 11.7 µM | SNB-78 > 100 µM | KM12 11.9 µM | IGROV-1 3.48 µM | A498 14.7 µM | CCRF-CEM 5.73 µM | HL-60 5.14 µM | NCI-H226 32.5 µM | DLD-1 5.18 µM | OVCAR-3 10.9 µM | M14 15.3 µM | CAKI-1 11.6 µM | SF-268 > 100 µM | SK-MEL-2 12 µM | LOX IMVI 20.4 µM | SN12C 23.4 µM | A549 6.44 µM | OVCAR-8 6.7 µM | MOLT-4 2.74 µM

C[n+]1c2ccccc2c(/C=N\NS(=O)(=O)c2ccc(Cl)cc2)c2ccccc21
inactive: U-251 45.8 µM | SW-620 39.5 µM | 786-0 51.9 µM | EKVX > 100 µM | NCI-H522 46.8 µM | NCI-H460 32.4 µM | HCC 2998 > 100 µM | UO-31 27.3 µM | OVCAR-5 97.7 µM | Malme-3M > 100 µM | SK-MEL-5 42 µM | HCT-116 33.7 µM | HT-29 34 µM | SF-539 87.5 µM | DMS-114 28.3 µM | HOP-62 > 100 µM | UACC-257 > 100 µM | NCI-H23 > 100 µM | SF-295 59.4 µM | SNB-75 39.4 µM | K562 17.7 µM | SNB-19 59.2 µM | RXF 393 57.3 µM | RPMI-8226 42.6 µM | M19-MEL 81.7 µM | XF498 27.3 µM | SK-MEL-28 94.8 µM | UACC-62 37.8 µM | KM-20L2 42.4 µM | OVCAR-4 > 100 µM | ACHN 68.2 µM | SK-OV-3 > 100 µM | SNB-78 > 100 µM | KM12 44.2 µM | IGROV-1 43 µM | A498 35.6 µM | CCRF-CEM 15.1 µM | HL-60 30.1 µM | HOP-92 48.8 µM | NCI-H226 68.2 µM | DLD-1 67.5 µM | OVCAR-3 41.8 µM | M14 56.4 µM | CAKI-1 29.7 µM | SF-268 69.2 µM | SK-MEL-2 46.7 µM | LOX IMVI 16.8 µM | SN12C 56.8 µM | A549 23 µM | DMS-273 41.8 µM | OVCAR-8 40.3 µM | MOLT-4 32.9 µM | TK-10 74 µM
35.9 µM: HCT-15
